“Also recorded” adds a separate entry of the source.
Legend:
bacteria = experiment: Binding of targeting peptides to microorganisms (Table 3); conditions: preferably 1x PBS; for Target(s) (microorganism bound by the targeting peptide) / Target(s) (microorganisms bound by the targeting peptide): peptide binding in aqueous buffers that varied depending on peptide solubility
microorganisms [1] = experiment: Morphology, biofilm and growth disruption by peptides (Table 5); type: cell-based; parameters: key: A: Peptide aggregates; B: Less hyphal formation; Clumps; Diffuse clumps and small polyps; F: Diffuse growth; H: Thin; I: Growth inhibition; Microcolony formation; Rippled; Small polyps; Thick; W: Halo formation on top, microlonies on bottom
Description: In certain embodiments peptides that induce alterations in phenotype or other biological activities can also be used as antimicrobial effector moieties.

microorganisms [2] = experiment: Peptide activities: binding, antimicrobial, growth or phenotype altering (Table 8)
Description: In certain embodiments, peptides described herein can have multiple activities. Thus for example, a peptide can have both binding/targeting activity and antimicrobial activity. Such peptides can be used, e.g., in a chimeric construct, for any or all of these properties. Thus, for example, a peptide designated “B” in Table 8 can be used as a targeting peptide. If it is also designated G or M it can also be used for antimicrobial activity.

[3] = microorganism the targeting peptide binds, binding in aqueous buffers that varied with peptide solubility

Row | Substance | Target(s) (microorganism bound by the targeting peptide) (bacteria) | Organism, effect (morphology, biofilm and growth disruption) (microorganisms [1]; S. pneumoniae) | Activities (microorganisms [2]) | Target(s) (bacteria; [3]) | Organism, effect (microorganisms [1]; MRSA) | Organism, effect (morphology, biofilm and growth disruption) (microorganisms [1]; MRSA) | other results
1 | PF-762 (chain 1 PAPAPSAPAPAPEQPEQPA; chain 2 PAPAPSAPAPAPEQPEQPA; Peptide with targeting and/or antimicrobial activity) | M. luteus; also recorded: C. albicans | S. pneumoniae (H) | G B |  |  |  | 
2 | PF-024 (DLRKAK; Peptide with targeting and/or antimicrobial activity) |  |  | G B | M. luteus and C. albicans and MRSA and E. faecalis and C. jeikeium | MRSA (M) |  | Organism, effect (microorganisms [1]; S. epidermidis): S. epidermidis (D)
3 | PF-C095 (LLALNMNEDTYYFELFFIFDNQNKKWLIFDLKERG; Peptide with targeting and/or antimicrobial activity) | A. naeslundii; also recorded: F. nucleatum; also recorded: P. gingivalis; also recorded: S. mutans |  | G B |  |  |  | Organism, effect (morphology, biofilm and growth disruption) (microorganisms [1]; F. nucleatum): F. nucleatum (T)
4 | PF-066 (IKGTVKAVDETTVVITVNGHGTELTFEKPAIKQVDPS; Peptide with targeting and/or antimicrobial activity) |  |  | G B | M. luteus; also recorded: E. coli; also recorded: C. jeikeium | MRSA (S) |  | 
5 | PF-741 (chain 1 AKREDTVAAQIGANILNLIQ; chain 2 AKREDTVAAQIGANILNLIQ; Peptide with targeting and/or antimicrobial activity) | S. epidermidis and M. luteus and P. mirabilis and P. aeruginosa and C. albicans and MRSA and S. pneumoniae and E. faecalis | S. pneumoniae (D) | G B |  |  | MRSA (C) | Organism, effect (morphology, biofilm and growth disruption) (microorganisms [1]; E. coli): E. coli (C); Organism, effect (morphology, biofilm and growth disruption) (microorganisms [1]; M. luteus): M. luteus (C); Organism, effect (morphology, biofilm and growth disruption) (microorganisms [1]; P. mirabilis): P. mirabilis (C); Organism, effect (morphology, biofilm and growth disruption) (microorganisms [1]; S. epidermidis): S. epidermidis (C); Organism, effect (morphology, biofilm and growth disruption) (microorganisms [1]; S. mutans): S. mutans (D)
6 | PF-C098 (PETKGKVSAFVFGIVVANVIAVVYILYMLREIGIIQ; Peptide with targeting and/or antimicrobial activity) | A. naeslundii; also recorded: F. nucleatum; also recorded: P. gingivalis; also recorded: S. mutans; also recorded: T. denticola |  | G B |  |  |  | Organism, effect (morphology, biofilm and growth disruption) (microorganisms [1]; F. nucleatum): F. nucleatum (T); Organism, effect (morphology, biofilm and growth disruption) (microorganisms [1]; S. mutans): S. mutans (F)
7 | PF-453 (IIQDIAHAFGY; Peptide with targeting and/or antimicrobial activity) |  | S. pneumoniae (C) | G B |  |  | MRSA (C) | Target(s) (microorganisms bound by the targeting peptide) (bacteria): M. luteus; also recorded: E. coli; also recorded: P. aeruginosa; also recorded: S. pneumoniae; also recorded: E. faecalis; also recorded: C. jeikeium; also recorded: C. jejuni; Organism, effect (morphology, biofilm and growth disruption) (microorganisms [1]; E. coli): E. coli (C); Organism, effect (morphology, biofilm and growth disruption) (microorganisms [1]; S. epidermidis): S. epidermidis (C)
8 | PF-738 (chain 1 KSGATSAASGAKSGASS; chain 2 KSGATSAASGAKSGASS; Peptide with targeting and/or antimicrobial activity) | S. epidermidis; also recorded: C. albicans; also recorded: C. jeikeium |  | G B |  |  | MRSA (M) | 
9 | PF-015 (SIDKRNLYNLKYYE; Peptide with targeting and/or antimicrobial activity) |  |  | G B | E. faecalis; also recorded: C. jeikeium | MRSA (W) |  | 
10 | PF-746 (chain 1 FLGNSQYFTRK; chain 2 FLGNSQYFTRK; Peptide with targeting and/or antimicrobial activity) | S. epidermidis; also recorded: M. luteus; also recorded: E. coli; also recorded: C. albicans; also recorded: S. pneumoniae; also recorded: E. faecalis; also recorded: C. jeikeium | S. pneumoniae (C) | G B |  |  | MRSA (C) | Organism, effect (morphology, biofilm and growth disruption) (microorganisms [1]; E. coli): E. coli (C); Organism, effect (morphology, biofilm and growth disruption) (microorganisms [1]; M. luteus): M. luteus (C); Organism, effect (morphology, biofilm and growth disruption) (microorganisms [1]; P. aeruginosa): P. aeruginosa (A); Organism, effect (morphology, biofilm and growth disruption) (microorganisms [1]; S. epidermidis): S. epidermidis (C); Organism, effect (morphology, biofilm and growth disruption) (microorganisms [1]; S. mutans): S. mutans (D)
11 | PF-C065 (DEERYSDSYFLKEKVFYLILALFLILFHQKYLYFLEIITI; Peptide with targeting and/or antimicrobial activity) | A. naeslundii; also recorded: F. nucleatum; also recorded: P. gingivalis; also recorded: S. mutans |  | G B |  |  |  | Organism, effect (morphology, biofilm and growth disruption) (microorganisms [1]; F. nucleatum): F. nucleatum (T)
12 | PF-737 (chain 1 KSSGSSASASSTAGGSSSK; chain 2 KSSGSSASASSTAGGSSSK; Peptide with targeting and/or antimicrobial activity) | S. epidermidis; also recorded: S. pneumoniae | S. pneumoniae (D) | G B |  |  |  | 
13 | PF-052 (QELINEAVNLLVKSK; Peptide with targeting and/or antimicrobial activity) |  |  | G B | S. epidermidis and M. luteus and E. coli and MRSA and E. faecalis and C. jeikeium and C. jejuni | MRSA (R) |  | Organism, effect (microorganisms [1]; C. jeikeium): C. jeikeium (D); Organism, effect (microorganisms [1]; M. luteus): M. luteus (A); Organism, effect (microorganisms [1]; S. epidermidis): S. epidermidis (S)
14 | PF-011 (MFCYYKQHKGDNFSIEEVKNIIADNEMKVN; Peptide with targeting and/or antimicrobial activity) |  |  | G B | M. luteus; also recorded: E. coli; also recorded: P. aeruginosa; also recorded: S. pneumoniae; also recorded: C. jeikeium | MRSA (R) |  | Organism, effect (microorganisms [1]; C. jeikeium): C. jeikeium (C)
15 | PF-020 (MKIILLLFLIFGFIVVVTLKSEHQLTLFSI; Peptide with targeting and/or antimicrobial activity) |  |  | G B | S. epidermidis and M. luteus and C. albicans and MRSA and S. pneumoniae and E. faecalis | MRSA (C) |  | Organism, effect (microorganisms [1]; M. luteus): M. luteus (C); Organism, effect (microorganisms [1]; S. epidermidis): S. epidermidis (C); Organism, effect (microorganisms [1]; S. mutans): S. mutans (F); Organism, effect (microorganisms [1]; S. pneumoniae): S. pneumoniae (D)
16 | PF-393 (DLVQSILSEFKKSG; Peptide with targeting and/or antimicrobial activity) |  |  | G B |  | MRSA (C) |  | Target(s) (microorganisms bound by the targeting peptide) (bacteria): S. epidermidis and E. coli and C. albicans and MRSA and S. pneumoniae and C. jejuni; Organism, effect (microorganisms [1]; C. jejuni): C. jejuni (R); Organism, effect (microorganisms [1]; E. faecalis): E. faecalis (A); Organism, effect (microorganisms [1]; S. epidermidis): S. epidermidis (R); Organism, effect (microorganisms [1]; S. pneumoniae): S. pneumoniae (R)
17 | PF-382 (KYKCSWCKRVYTLRKDHKTAR; Peptide with targeting and/or antimicrobial activity) |  |  | G B |  | MRSA (M) |  | Target(s) (bacteria; microorganism bound by the targeting peptide, binding in aqueous buffers chosen by peptide solubility): S. epidermidis; also recorded: B. subtilis; also recorded: B. fragilis; also recorded: E. coli; also recorded: P. aeruginosa; also recorded: E. faecalis; also recorded: C. jeikeium; also recorded: C. jejuni
18 | PF-760 (chain 1 DHITLDDYEIHDGFNFELYYG; chain 2 DHITLDDYEIHDGFNFELYYG; Peptide with targeting and/or antimicrobial activity) | S. epidermidis; also recorded: M. luteus | S. pneumoniae (C) | G B |  |  | MRSA (M) | Organism, effect (morphology, biofilm and growth disruption) (microorganisms [1]; S. epidermidis): S. epidermidis (M)
19 | PF-049 (AYYLKRREEKGK; Peptide with targeting and/or antimicrobial activity) |  |  | G B | S. epidermidis and MRSA and C. jeikeium and C. jejuni | MRSA (S) |  | 
20 | PF-447 (IDKSRNKDQFSHIFGLYNICSG; Peptide with targeting and/or antimicrobial activity) |  | S. pneumoniae (C) | G B |  |  | MRSA (C) | Target(s) (microorganisms bound by the targeting peptide) (bacteria): S. epidermidis; also recorded: M. luteus; also recorded: E. coli; also recorded: S. pneumoniae; Organism, effect (morphology, biofilm and growth disruption) (microorganisms [1]; E. faecalis): E. faecalis (C); Organism, effect (morphology, biofilm and growth disruption) (microorganisms [1]; S. epidermidis): S. epidermidis (C)
21 | PF-564 (TIILNDQINSLQERLNKLNAETDRR; Peptide with targeting and/or antimicrobial activity) |  |  | G B |  |  | MRSA (C) | Target(s) (microorganisms bound by the targeting peptide) (bacteria): S. epidermidis; also recorded: C. albicans; also recorded: S. pneumoniae; also recorded: C. jeikeium; Organism, effect (morphology, biofilm and growth disruption) (microorganisms [1]; B. subtilis): B. subtilis (D); Organism, effect (morphology, biofilm and growth disruption) (microorganisms [1]; C. jeikeium): C. jeikeium (R); Organism, effect (morphology, biofilm and growth disruption) (microorganisms [1]; C. jejuni): C. jejuni (R)
